Measured values: patent publication US20220041559A1, “BENZO-AND PYRIDO-PYRAZOLES AS PROTEIN KINASE INHIBITORS” (ROTTAPHARM BIOTECH S.R.L., priority 2019, published 2022)

Legend:
human FynB = human FynB (Homo sapiens, UniProt P06241); experiment: Inhibition of FynB-induced Tau(Y18)-phosphorylation (cell-based assay, HEK293); settings: for IC50: HEK293 over-expressing FynB and Tau 0N4R, incubation 6 or 24 hours, ELISA; for Inhibition of FynB-induced Tau(Y18)-phosphorylation, result in words: summary of Table 20
Description: HEK293 cells (Human Embryonic Kidney 293) were seeded at 6×10^5 in poly-D-lysine 12 w microplates and grown adherent in medium DMEM/10% FBS at 37° C. with 5% CO2. After 24 h, cells were transfected in order to over-express either constitutively active form of human FynB and Tau protein (isoform 0N4R), through an optimized Lipofectamine® 3000 Transfection protocol (Life Technologies™). A non-transfected sample (negative control) was included in every experiment.
Twenty-four hours from transfection, treatments of cells were performed by adding fresh medium containing diluent (DMSO 0.1% final concentration) or test compounds. The incubation was carried out for 6 or 24 hours at 37° C. with 5% CO2. All experimental conditions were performed in duplicate.
At the end of the incubation, the medium was removed and cellular lysates were obtained by adding M-PER lysis buffer containing a 1× Protease/Phosphatase inhibitors cocktail. Then, lysates were transferred into Eppendorf tubes, sonicated and stored at −80° C.
Protein content was measured by Bradford method. Lysates were analyzed by a customized ELISA assay for Tau phosphorylation (Tyrosine 18 residue-Fyn mediated) and Total amount determination. The net OD values were used to calculate the inhibitory effect of compounds.

VEGFR2 (KDR) kinase = molecular target: T1, VEGFR2 (KDR) kinase (Homo sapiens, UniProt P35968); experiment: ADP-Glo in vitro kinase assay, VEGFR2 kinase inhibition; format: biochemical; settings: for IC50: ATP 50 μM, 30 minutes at room temperature; for VEGFR2 kinase inhibition, result in words: Table 19
T1 construct: purchased SignalChem
Description: (§1) The ADP-Glo™ Kinase Assay (Promega), monitoring ADP produced in the kinase reaction, was performed in two steps. In the first one, after the kinase reaction, the ADP-Glo™ Reagent is added to terminate the kinase reaction and deplete the remaining ATP. In the second step, the Kinase Detection Reagent is added to simultaneously convert ADP to ATP (ATPn or newly synthesized ATP) and introduce luciferase and luciferin, allowing the ATPn to be measured (luciferase/luciferin reaction). The amount of light generated correlates with the amount of ATPn (indirectly with the ADP produced in kinase reaction).
(§2) Kinase reaction was performed in 10 μl in a white 384-well plate, inhibitor solutions in DMSO/Kinase buffer (40 mM Tris-Cl, 20 mM MgCl2, 0.1 mg/ml BSA, 50 μM DTT, pH 7.5) and VEGFR2 (KDR) kinase in Kinase buffer (SignalChem, 0.5 ng/μl final concentration in assay) were pre-incubate 15 minutes at room temperature. At the kinase concentration selected, a signal-to negative control ratio >10 was calculated, according to supplier indication. In samples representing the Total enzymatic activity or the negative control (no enzyme), inhibitor solution was replaced by diluents (1 DMSO in kinase buffer, final concentration) or ultra-pure water, respectively.
(§3) The range of inhibitor concentrations was from 10^−11 M up to 3×10^−6 M (final concentration in assay) and each experimental point was performed in duplicate.
(§4) To start the reaction, a substrate/ATP mix (50 μM final concentration, near to ATP Km value) was added to each sample and after 30 minutes incubation at room temperature, ADP-Glo™ Reagent and Kinase Detection Reagent, incubated in sequence according to the respective incubation time and supplier indication, allowed to stop and develop the kinase reaction. The luminescence was measured with a plate-reading luminometer (Envision 2104 Multilabel reader, PerkinElmer). The percentage of inhibition was calculated towards the Total enzymatic activity and the corresponding curves were analyzed by non linear curve fitting (GraphPad software, version 7 for Windows), allowing to calculate the IC50 value±standard error of the value

EGFR = EGFR (Homo sapiens, UniProt P00533); experiment: ADP-Glo in vitro kinase assay, EGFR kinase inhibition; format: biochemical; parameters: purchased SignalChem; settings: for IC50: ATP 10 μM, 30 minutes at room temperature
Description: as §1
as §2, with “EGFR” for “VEGFR2 (KDR)”, “2.5” for “0.5”, “selected” for “selected,”, “activity (no inhibitor)” for “activity”
as §3
as §4, with “mix (ATP 10” for “mix (50”, “the estimate.” for “the value”

FYN = molecular target: T2, FYN (Homo sapiens, UniProt P06241); experiment: Z'-LYTE in vitro kinase assay, FYN kinase inhibition; format: biochemical; settings: for IC50: near-Km ATP, 60 minutes at 25° C.
T2 construct: purchased CarnaBioscience
Description: Assays to determine the kinase inhibitory activity of compounds were performed using an automatic liquid handling device (Microlab STAR Hamilton) and Z′-LYTE™ Kinase Assay Platform (Invitrogen), a Fluorescence Resonance Energy Transfer (FRET)-based assay platform compatible with high-throughput screening (HTS) applications. The assay employs a fluorescence-based, coupled-enzyme format and utilizes the differential sensitivity of phosphorylated and non-phosphorylated peptides to proteolytic cleavage.
Test compounds were evaluated towards active FYN (CarnaBioscience). The enzyme was incubated in a 384 low-volume microplate with a synthetic peptide-substrate, ATP and different inhibitor concentrations, ranging from 10^−10 M up to 10^−5 M final concentration. Samples representing the 0% inhibition (or total enzymatic activity) were in the presence of compound diluent (1% DMSO final) in Reaction Buffer (50 mM Hepes, 10 mM MgCl2, 1 mM EGTA, 0.01% Brij-35, pH 7.5).
A near-Km ATP concentrations for the kinase and an optimal enzyme concentration that phosphorylates 20-40% of the Z′-LYTE™ Tyr 2 Peptide in a one-hour incubation, were selected. All reagents were diluted in reaction buffer and the kinase reaction was carried out in a total volume of 10 μl, for 60 minutes at 25° C. The 0% Phosphorylation (i.e. no ATP) and 100% Phosphorylation (i.e. synthetically phosphorylated peptide supplied) Assay Controls, included in each plate, allowed to calculate the percent phosphorylation achieved in the specific reaction well. The 0% Inhibition and 0% Phosphorylation (i.e. 100% Inhibition) Controls define the dynamic range in the screen. At the end of incubation, a secondary reaction (the Development Reaction) started by adding 5 μl of Development Reagent, containing a site-specific protease that recognizes and cleaves non-phosphorylated peptides, and was interrupted after 60 minutes with 5 μl/sample of Stop Reagent. Measurement of the Coumarin (Ex. 400 nm, Em. 460 nm) and Fluorescein (Ex. 400 nm, Em. 535 nm) emission signals were performed by a fluorescence plate reader (Envision, PerkinElmer).
Results are expressed as percentage of inhibition and the IC50 values were calculated by non-linear curve fitting using GraphPad™ Prism software.

U87MG = experiment: Cell viability, ViaCount assay, U87MG; format: cell-based, human; settings: tested cell lines (U87MG, U373)
Description: U87MG: a human glioblastoma astrocytoma from ATCC. Grown in DMEM medium supplemented with 10% FBS at 37° C. with CO2.
Cell viability and total cell count was performed with ViaCount Assay on Guava® Systems, which was able to distinguish viable and non-viable cells based on differential permeabilities of two DNA-binding dyes in the Guava ViaCount® Reagent. 2×10^4 cancer cells were plated in 24 well in DMEM 10%. After 72 h cells were treated with the different compounds for 24, 72 h or 7 days, with a medium change and a second treatment with the product on day 4. At the end of the incubation period the analysis was done following the kit instructions.

T2 sequence (P06241 whole entry): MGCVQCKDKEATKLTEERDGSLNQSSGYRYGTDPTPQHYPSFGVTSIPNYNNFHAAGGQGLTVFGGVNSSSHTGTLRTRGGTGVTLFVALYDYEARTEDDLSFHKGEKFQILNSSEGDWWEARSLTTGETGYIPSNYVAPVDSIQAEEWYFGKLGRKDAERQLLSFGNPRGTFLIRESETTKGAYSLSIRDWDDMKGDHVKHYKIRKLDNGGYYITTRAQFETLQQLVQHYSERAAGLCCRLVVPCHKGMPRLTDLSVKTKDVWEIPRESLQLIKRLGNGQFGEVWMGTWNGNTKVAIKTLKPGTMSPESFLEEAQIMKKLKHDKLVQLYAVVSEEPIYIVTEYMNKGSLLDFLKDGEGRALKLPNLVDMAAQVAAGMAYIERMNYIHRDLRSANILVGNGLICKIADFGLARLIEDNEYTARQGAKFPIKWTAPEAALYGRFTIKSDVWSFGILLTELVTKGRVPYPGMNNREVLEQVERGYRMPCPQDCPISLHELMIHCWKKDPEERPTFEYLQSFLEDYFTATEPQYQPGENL
T1 sequence (P35968 20-1356): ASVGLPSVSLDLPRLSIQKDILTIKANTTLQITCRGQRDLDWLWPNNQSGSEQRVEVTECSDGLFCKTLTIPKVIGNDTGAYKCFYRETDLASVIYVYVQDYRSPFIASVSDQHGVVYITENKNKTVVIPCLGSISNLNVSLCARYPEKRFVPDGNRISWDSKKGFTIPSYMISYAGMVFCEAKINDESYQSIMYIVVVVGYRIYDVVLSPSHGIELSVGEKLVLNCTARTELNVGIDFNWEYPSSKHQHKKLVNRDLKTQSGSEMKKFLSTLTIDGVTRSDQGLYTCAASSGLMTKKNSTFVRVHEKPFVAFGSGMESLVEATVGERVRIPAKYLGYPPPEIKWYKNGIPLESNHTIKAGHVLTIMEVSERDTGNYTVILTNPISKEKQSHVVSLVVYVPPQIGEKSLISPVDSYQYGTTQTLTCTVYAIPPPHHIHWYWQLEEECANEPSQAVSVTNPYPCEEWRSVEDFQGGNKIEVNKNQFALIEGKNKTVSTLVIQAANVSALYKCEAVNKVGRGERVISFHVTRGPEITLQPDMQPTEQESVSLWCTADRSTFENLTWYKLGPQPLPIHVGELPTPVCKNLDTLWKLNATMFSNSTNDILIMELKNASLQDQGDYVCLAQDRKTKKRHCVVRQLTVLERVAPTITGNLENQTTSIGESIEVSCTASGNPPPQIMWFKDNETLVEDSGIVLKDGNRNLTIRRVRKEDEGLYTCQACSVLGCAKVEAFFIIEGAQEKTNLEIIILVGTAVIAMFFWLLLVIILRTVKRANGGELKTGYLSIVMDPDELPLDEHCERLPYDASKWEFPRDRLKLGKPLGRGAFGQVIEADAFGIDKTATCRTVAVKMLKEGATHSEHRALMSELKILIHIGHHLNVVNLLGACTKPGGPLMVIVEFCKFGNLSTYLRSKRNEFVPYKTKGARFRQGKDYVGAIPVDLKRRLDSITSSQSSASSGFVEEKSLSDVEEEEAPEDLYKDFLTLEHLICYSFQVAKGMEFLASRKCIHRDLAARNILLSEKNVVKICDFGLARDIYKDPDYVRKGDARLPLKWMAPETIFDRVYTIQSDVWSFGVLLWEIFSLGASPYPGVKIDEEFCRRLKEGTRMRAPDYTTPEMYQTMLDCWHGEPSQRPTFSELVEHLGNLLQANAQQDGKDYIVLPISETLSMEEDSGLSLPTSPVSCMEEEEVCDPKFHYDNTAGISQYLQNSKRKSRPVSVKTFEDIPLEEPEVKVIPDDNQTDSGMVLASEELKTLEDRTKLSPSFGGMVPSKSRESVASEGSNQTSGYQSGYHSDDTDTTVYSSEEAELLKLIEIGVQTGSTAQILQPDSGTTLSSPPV
human FynB, sequence (P06241 271-524 limits assumed): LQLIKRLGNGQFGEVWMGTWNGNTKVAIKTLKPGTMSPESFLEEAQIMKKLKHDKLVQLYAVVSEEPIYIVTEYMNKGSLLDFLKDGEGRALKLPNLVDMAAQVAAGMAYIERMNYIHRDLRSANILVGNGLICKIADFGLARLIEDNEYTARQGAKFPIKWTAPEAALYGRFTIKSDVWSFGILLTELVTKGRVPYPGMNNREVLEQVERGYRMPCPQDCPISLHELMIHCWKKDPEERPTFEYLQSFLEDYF
EGFR, sequence (P00533 25-1210): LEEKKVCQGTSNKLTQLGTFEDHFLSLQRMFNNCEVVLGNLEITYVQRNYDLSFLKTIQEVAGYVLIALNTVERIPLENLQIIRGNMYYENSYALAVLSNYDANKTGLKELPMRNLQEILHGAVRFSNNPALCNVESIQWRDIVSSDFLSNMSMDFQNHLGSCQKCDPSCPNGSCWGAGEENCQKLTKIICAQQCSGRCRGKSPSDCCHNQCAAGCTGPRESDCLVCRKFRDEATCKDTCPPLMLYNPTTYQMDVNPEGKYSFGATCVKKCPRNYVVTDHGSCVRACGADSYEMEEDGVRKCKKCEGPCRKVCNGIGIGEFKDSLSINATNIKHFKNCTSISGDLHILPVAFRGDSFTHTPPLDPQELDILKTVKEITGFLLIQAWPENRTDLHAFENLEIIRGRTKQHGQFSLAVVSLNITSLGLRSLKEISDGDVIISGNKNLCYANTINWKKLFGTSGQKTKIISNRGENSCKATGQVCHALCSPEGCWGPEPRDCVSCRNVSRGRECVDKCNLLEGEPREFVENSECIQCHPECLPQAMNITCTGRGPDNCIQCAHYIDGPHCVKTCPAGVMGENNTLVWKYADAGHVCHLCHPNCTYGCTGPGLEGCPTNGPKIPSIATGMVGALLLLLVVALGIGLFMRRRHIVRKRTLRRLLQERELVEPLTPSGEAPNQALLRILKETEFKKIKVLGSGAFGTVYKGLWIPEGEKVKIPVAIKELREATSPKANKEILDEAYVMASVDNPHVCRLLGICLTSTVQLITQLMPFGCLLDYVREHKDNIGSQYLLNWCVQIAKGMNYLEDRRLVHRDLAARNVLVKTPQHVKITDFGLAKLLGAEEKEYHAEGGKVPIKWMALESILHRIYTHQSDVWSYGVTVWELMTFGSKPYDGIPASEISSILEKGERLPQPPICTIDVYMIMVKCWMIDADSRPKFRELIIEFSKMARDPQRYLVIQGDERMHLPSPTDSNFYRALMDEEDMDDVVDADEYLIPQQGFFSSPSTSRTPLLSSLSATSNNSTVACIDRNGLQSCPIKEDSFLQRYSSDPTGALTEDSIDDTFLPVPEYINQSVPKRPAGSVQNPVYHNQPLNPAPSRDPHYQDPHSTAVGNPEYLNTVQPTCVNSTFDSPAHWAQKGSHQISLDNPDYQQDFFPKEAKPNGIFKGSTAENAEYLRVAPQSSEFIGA

| IC50 (human FynB) [nM] | IC50 (VEGFR2 (KDR) kinase) [nM] | IC50 (EGFR) [nM] | IC50 (FYN) [nM] | Inhibition of FynB-induced Tau(Y18)-phosphorylation, result in words (human FynB) | VEGFR2 kinase inhibition, result in words (VEGFR2 (KDR) kinase) | EGFR kinase inhibition, result in words (EGFR; text summary of Table 18) | FYN kinase inhibition, result in words (FYN; Table 17) | SMILES | reduction of cell viability, result in words (U87MG) |
| --- | --- | --- | --- | --- | --- | --- | --- | --- | --- |
| 230 | 2.6 | ≥ 1000 | 111 | – | – | – | – | Cc1ccc(Nc2ccc3c(NC(=O)c4ccc(C5CCN(C)CC5)cc4)n[nH]c3n2)cc1 [Compound 23, 4-(1-methylpiperidin-4-yl)-N-(6-(p-tolyamino)-1H-pyrazolo[3,4-b]pyridin-3-yl)benzamide] | – |
| 259 | 1 | 15 | 212 | best inhibitors | more potent | more active | – | CN1CCN(c2ccc(C(=O)Nc3n[nH]c4nc(Nc5ccccc5F)ccc34)cc2)CC1 [Compound 48, N-(6-((2-fluorophenyl)amino)-1H-pyrazolo[3,4-b]pyridin-3-yl)-4-(4-methylpiperazin-1-yl)benzamide] | – |
| 669 | 1 | 155 | 115 | – | more potent | – | – | Cc1ccc(Nc2ccc3c(NC(=O)c4ccc(C5CCN(C)CC5)cc4)n[nH]c3n2)c(F)c1 [Compound 30, N-(6-((2-fluoro-4-methylphenyl)amino)-1H-pyrazolo[3,4-b]pyridin-3-yl)-4-(1-methylpiperidin-4-yl)benzamide] | – |
| 100 | 1 | ≥ 1000 | 72 | best inhibitors | more potent | – | more active | CN1CCC(c2ccc(C(=O)Nc3n[nH]c4nc(Nc5ccc6c(c5)OCO6)ccc34)cc2)CC1 [Compound 28, N-(6-(benzo[d][1,3]dioxol-5-ylamino)-1H-pyrazolo[3,4-b]pyridin-3-yl)-4-(1-methylpiperidin-4-yl)benzamide] | active in reducing cell viability |
